In the assay the target is Jack bean urease (Canavalia ensiformis, UniProt P07374). Particulars: substrate urea; phosphate buffer pH […]; […]°C; […] min.
Jack bean urease, sequence (P07374 whole entry, looked up): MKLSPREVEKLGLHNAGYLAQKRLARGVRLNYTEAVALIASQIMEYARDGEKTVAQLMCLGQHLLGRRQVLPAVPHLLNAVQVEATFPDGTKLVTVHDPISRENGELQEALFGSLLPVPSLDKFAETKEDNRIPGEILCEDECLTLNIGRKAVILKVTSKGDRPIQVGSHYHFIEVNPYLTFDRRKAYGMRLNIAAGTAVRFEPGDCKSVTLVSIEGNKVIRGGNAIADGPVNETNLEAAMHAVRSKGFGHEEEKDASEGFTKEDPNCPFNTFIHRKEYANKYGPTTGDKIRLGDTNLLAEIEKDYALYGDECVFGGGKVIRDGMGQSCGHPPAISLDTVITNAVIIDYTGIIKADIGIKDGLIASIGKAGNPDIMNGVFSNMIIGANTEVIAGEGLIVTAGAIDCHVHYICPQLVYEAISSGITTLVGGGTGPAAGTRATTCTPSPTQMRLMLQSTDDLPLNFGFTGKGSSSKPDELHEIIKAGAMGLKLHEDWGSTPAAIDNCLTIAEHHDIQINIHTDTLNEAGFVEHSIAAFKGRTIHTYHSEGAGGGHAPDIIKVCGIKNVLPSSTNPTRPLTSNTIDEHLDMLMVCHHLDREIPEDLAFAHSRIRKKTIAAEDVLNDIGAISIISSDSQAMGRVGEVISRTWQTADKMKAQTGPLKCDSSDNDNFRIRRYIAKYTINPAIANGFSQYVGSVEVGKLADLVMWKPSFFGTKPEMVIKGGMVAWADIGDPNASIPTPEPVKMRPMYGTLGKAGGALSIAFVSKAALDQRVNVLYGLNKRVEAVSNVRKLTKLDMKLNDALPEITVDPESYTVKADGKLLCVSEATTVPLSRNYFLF

As to `NC(N)=S` [Thiourea], the “Urease IC50 ± SEM” value was 1.58 ± 0.95 µg/mL.
